{
  "source": "patent US20120308562A1",
  "about": "“METHODS OF TREATING MESOTHELIOMA WITH A PI3K INHIBITOR COMPOUND” (priority 2011, published 2012)",
  "key": {"mTOR": {"target": "mTOR (Homo sapiens, UniProt P42345)", "experiment": "biochemical"}, "MCF7-neo/HER2 cell line": {"test_system": "MCF7-neo/HER2 cell line", "experiment": "MCF7-neo/HER2 cell line IC50", "assay_type": "cell-based"}, "[1]": {"test_system": "MDA-MB-361.1 breast cancer xenograft", "experiment": "MDA-MB-361.1 breast cancer xenograft model", "assay_type": "in vivo", "details": "QD"}, "[2]": {"experiment": "Phase I clinical pharmacokinetics (plasma, LC-MS/MS)", "assay_type": "in vivo, human", "details": "for AUC(0-t): oral, individual patient, read-out: AUC0-24 h", "experimental": "For Cycle 1 of the Phase I study, a single dose of GDC-0980 is administered to patients on Day 1 in a clinical setting that can accommodate frequent blood draws over a period of up to 48 hours after the dose is administered. Daily dosing will begin on Day 8 and continue for 21 days (Days 8-28), followed by a 7-day off-drug observation period (Days 29-35). Subsequent cycles will be 28 days in length (21 days of daily dosing followed by a 7-day observation period). Additional cohorts may be added to examine the tolerability of a 28-day dosing schedule with no observation period after the MTD is […] defined for the 21-day dosing schedule. GDC-0980 should be taken on an empty stomach (fasting) in the morning, unless otherwise instructed. For all patients Days 1 and 15 (PK sampling days), patients should be fasted overnight (at least 8-10 hours) prior to their dose on those days. On other days, patients should avoid consuming anything but water for 1 hour before and 2 hours after GDC-0980 administration. Each dose should be taken with a minimum of 3-4 ounces of water. […] PK: Plasma GDC-0980 concentrations were assayed by LC-MS/MS (Tandem Labs, Inc., Salt Lake City, Utah) with LLOQ 0.5 ng/mL and analyzed using noncompartmental analysis."}, "[3]": {"experiment": "Phase I safety and tolerability", "protocol": "(§1) Patients with a history of Type 1 or 2 diabetes mellitus requiring regular medication were excluded. GDC-0980 was administered on Day 1, followed by 1 week of washout to evaluate single-dose PK and PD markers. GDC-0980 was then dosed QD for either 21 days or 28 days every 28-day cycle. Tumor assessments were performed after Cycles 1, 2, and then every 2 cycles using RECIST guidelines. Optional FDG-PET was obtained between Days 22-28 and Days 50-57.\n(§2) Fasted blood glucose & insulin were monitored at clinical visits (pre-dose & 2 hrs post-dose). Dosing with GDC-0980 was allowed with =G2 blood glucose with appropriate monitoring, i.e., additional monitoring in clinic and fingerstick glucose testing at home.\n(§3) Safety Analyses: All patients who receive any amount of GDC-0980 therapy will be included in the safety analyses. Safety will be assessed through summaries of adverse events, deaths, and changes in laboratory test results. All adverse events for all patients will be collected for the safety dataset. Verbatim descriptions of adverse events will be mapped to thesaurus terms. All recorded adverse event data will be listed by study site, patient, and cycle. All adverse events occurring on or after the first treatment will be summarized by mapped term, appropriate thesaurus levels, and NCI CTCAE, v3.0 toxicity grade. All serious adverse events will be listed separately and summarized. In addition, the incidence of symptomatic CHF and/or LVEF <40% will be summarized. Deaths reported during the study treatment period and those reported during follow-up after patient treatment discontinuation will be summarized. Laboratory data will be summarized by grade using the NCI CTCAE, v3.0 toxicity grade. Changes in LVEF over time will be summarized and listed by scheduled measurement time. The occurrence of antibodies to GDC-0980 will be listed."}, "[4]": {"experiment": "stability in human microsomes", "assay_type": "in vitro ADME"}, "hERG": {"target": "hERG (Homo sapiens, UniProt Q12809)", "sequence (Q12809 whole entry)": "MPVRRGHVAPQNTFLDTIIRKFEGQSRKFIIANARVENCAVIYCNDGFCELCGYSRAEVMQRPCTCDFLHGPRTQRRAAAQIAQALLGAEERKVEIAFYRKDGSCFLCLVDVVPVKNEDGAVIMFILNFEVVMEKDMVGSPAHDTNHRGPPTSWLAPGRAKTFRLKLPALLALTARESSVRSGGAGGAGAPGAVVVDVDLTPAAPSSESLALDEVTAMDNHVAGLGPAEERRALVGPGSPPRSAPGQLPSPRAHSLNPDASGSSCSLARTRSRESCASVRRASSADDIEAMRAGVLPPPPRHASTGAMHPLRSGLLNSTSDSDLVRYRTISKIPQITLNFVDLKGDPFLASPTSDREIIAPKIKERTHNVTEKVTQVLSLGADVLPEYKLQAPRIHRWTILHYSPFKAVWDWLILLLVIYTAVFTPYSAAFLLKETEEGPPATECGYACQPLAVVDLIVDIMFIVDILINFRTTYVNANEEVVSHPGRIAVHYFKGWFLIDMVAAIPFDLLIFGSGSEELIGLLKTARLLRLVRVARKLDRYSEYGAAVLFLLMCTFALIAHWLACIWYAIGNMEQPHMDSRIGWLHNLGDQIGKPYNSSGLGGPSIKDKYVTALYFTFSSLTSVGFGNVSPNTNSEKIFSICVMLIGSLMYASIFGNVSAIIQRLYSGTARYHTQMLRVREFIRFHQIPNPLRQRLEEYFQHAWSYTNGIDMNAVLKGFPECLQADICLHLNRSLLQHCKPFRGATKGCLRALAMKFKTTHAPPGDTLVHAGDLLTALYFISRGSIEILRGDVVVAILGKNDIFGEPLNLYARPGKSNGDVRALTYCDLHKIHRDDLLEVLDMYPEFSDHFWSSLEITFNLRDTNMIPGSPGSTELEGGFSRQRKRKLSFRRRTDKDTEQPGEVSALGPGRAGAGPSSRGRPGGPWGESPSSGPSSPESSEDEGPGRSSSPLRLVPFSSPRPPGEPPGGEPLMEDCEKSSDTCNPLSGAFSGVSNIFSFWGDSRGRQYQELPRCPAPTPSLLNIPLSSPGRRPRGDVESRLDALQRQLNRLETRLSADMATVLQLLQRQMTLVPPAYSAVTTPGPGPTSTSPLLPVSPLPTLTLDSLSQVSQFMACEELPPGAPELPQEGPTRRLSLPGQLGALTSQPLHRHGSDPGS", "experiment": "hERG activity"}, "[5]": {"experiment": "stability in human hepatocytes", "assay_type": "in vitro ADME"}, "mesothelioma": {"test_system": "mesothelioma", "experiment": "Phase I tumor response by RECIST, mesothelioma patients", "details": "person; for decrease in target lesions by RECIST: 21/28 day schedule", "protocol": "Tumor assessments (CT and/or magnetic resonance imaging [MRI] scans) are performed approximately every 6 weeks irrespective of dose delays, interruptions, or reductions. Bone and brain scans (either CT or MRI) may be performed at baseline and if clinically indicated during the study. Patient management decisions were made based on tumor assessments performed by investigators. The primary study endpoints related to response were determined by an independent radiologic review of patient scans, with assessments based on investigator reporting being secondary. If each non-target lesion cannot be assessed at a follow-up tumor assessment timepoint, patients may still be considered evaluable for timepoint response as long as all target lesions are measured. Patients with non-target lesions that were not assessed at a timepoint were assessed as having a partial response, stable disease, or progressive disease. All lesions, target and non-target, were assessed before a response was considered confirmed. To reduce the frequency of unevaluable non-target lesions, bone lesions visible on baseline CT scan as non-target lesion(s) for follow-up, were compared with bone lesions identified on the baseline bone scan where possible if lesions are not visible on both modalities or as easily and reproducibly assessed.\nTumor assessments were performed after Cycles 1, 2, and then every 2 cycles using RECIST guidelines. Optional FDG-PET was obtained between Days 22-28 and Days 50-57."}, "[6]": {"details": "in vivo", "protocol": "as §1, §2, §3"}, "pAKT (S473) in PRP": {"test_system": "pAKT (S473) in PRP", "experiment": "pAKT in platelet-rich plasma (MSD assay), Phase I", "assay_type": "in vivo, human", "experimental": "pAKT in PRP: Total AKT and pAKT (S473) in PRP were measured by Meso Scale Discovery (MSD) assay, and the percent change in pAKT relative to baseline was calculated."}, "clearance in dogs": {"experiment": "clearance in dogs", "details": "dog, in vivo"}, "adrenal cortical cancer": {"test_system": "adrenal cortical cancer", "experiment": "Phase I tumor response by RECIST, adrenal cortical cancer patient", "details": "person, 40 mg QD, 28/28 day schedule", "protocol": "(§4) Tumor assessments (CT and/or magnetic resonance imaging [MRI] scans) are performed approximately every 6 weeks irrespective of dose delays, interruptions, or reductions. Bone and brain scans (either CT or MRI) may be performed at baseline and if clinically indicated during the study. Patient management decisions were made based on tumor assessments performed by investigators. The primary study endpoints related to response were determined by an independent radiologic review of patient scans, with assessments based on investigator reporting being secondary. If each non-target lesion cannot be assessed at a follow-up tumor assessment timepoint, patients may still be considered evaluable for timepoint response as long as all target lesions are measured. Patients with non-target lesions that were not assessed at a timepoint were assessed as having a partial response, stable disease, or progressive disease. All lesions, target and non-target, were assessed before a response was considered confirmed. To reduce the frequency of unevaluable non-target lesions, bone lesions visible on baseline CT scan as non-target lesion(s) for follow-up, were compared with bone lesions identified on the baseline bone scan where possible if lesions are not visible on both modalities or as easily and reproducibly assessed. […]"}, "clearance in rodents": {"experiment": "clearance in rodents", "details": "in vivo"}, "MDA-MB-361.1 xenografts": {"test_system": "MDA-MB-361.1 xenografts", "experiment": "nonclinical PK/PD model of tumor growth inhibition with predicted human PK", "details": "predicted human PK and nonclinical PD data, preliminary", "text": "A nonclinical PK/PD model of tumor growth inhibition was developed using the indirect response model (Jusko W J. “Pharmacodynamics of chemotherapeutic effects: dose-time-response relationships for phase-nonspecific agents”, J Pharm Sci (1971) 60:892-5) to fit exposure and growth inhibition data based on four sets of experiments examining varying schedules and doses in the MDA-MB-361.1 xenografts. The PK/PD model was then used to predict minimal exposure needed to achieve 50% tumor growth inhibition, using the predicted human PK data and the nonclinical PD data. […] On the basis of MLP allometric scaling, a daily dose of approximately 18 mg may achieve this exposure. Dose escalation will continue until the MTD, even if 1.7 μM·hr exposure is surpassed and well tolerated, since it is well established that tumor xenograft models are not absolutely predictive of clinical response (Sausville and Burger 2006)."}, "solid tumors": {"test_system": "solid tumors", "experiment": "Phase I best RECIST response and time on study, all enrolled patients", "details": "peritoneal mesothelioma and adrenal cancer patients", "protocol": "as §4"}, "[7]": {"experiment": "pharmacokinetics after a single oral dose (species not given)", "assay_type": "in vivo", "details": "species not stated"}, "[8]": {"details": "human, plasma, patients, single oral dose"}},
  "note": "Like-named read-outs stand apart in the source and are kept apart here.",
  "data": [
    {"molecule": "Cc1c(CN2CCN(C(=O)[C@H](C)O)CC2)sc2c(N3CCOCC3)nc(-c3cnc(N)nc3)nc12", "note": "[GDC-0980, (S)-1-(4-((2-(2-aminopyrimidin-5-yl)-7-methyl-4-morpholinothieno[3,2-d]pyrimidin-6-yl)methyl)piperazin-1-yl)-2-hydroxypropan-1-one]", "values": [
      {"measurement": "Ki", "setting": "mTOR", "result": 17.3, "unit": "nM"},
      {"measurement": "IC50", "setting": "MCF7-neo/HER2 cell line", "result": 320, "unit": "nM"},
      {"measurement": "minimum dose producing significant growth inhibition", "setting": "[1]", "result": 1.0, "unit": "mg/kg"},
      {"measurement": "AUC(0-t)", "setting": "[2]; human, plasma, 8 mg QD, 21/28 day schedule", "result": "~0.4", "unit": "µM·h"},
      {"measurement": "AUC(0-t)", "setting": "[2]; human, plasma, 32 mg QD, 21/28 day schedule", "result": "~4.4", "unit": "µM·h"},
      {"measurement": "AUC(0-t)", "setting": "[2]; human, plasma, 40 mg QD, 28/28 day schedule", "result": "~4.1", "unit": "µM·h"},
      {"measurement": "AUC(0-t)", "setting": "[2]; human, plasma, 50 mg QD, 21/28 day schedule", "result": "~3", "unit": "µM·h"},
      {"measurement": "Tmax", "setting": "[2]; [8]", "result": "~2", "unit": "h"},
      {"measurement": "half-life", "setting": "[2]; [8]", "result": "6 to 18", "unit": "h"},
      {"measurement": "dose dependence of AUC and Cmax", "setting": "[2]; patients, single oral dose", "result": "dose-proportional increases"},
      {"measurement": "dose at which the MTD was exceeded", "setting": "[3]; QD, 21/28-day schedule", "result": 70, "unit": "mg"},
      {"measurement": "G5 adverse event considered related to GDC-0980", "setting": "[3]; metastatic colorectal cancer patient, 50 mg QD, about 1 week after starting Cycle 2", "result": "G5 adverse event of colitis"},
      {"measurement": "stability in human microsomes", "setting": "[4]", "result": "stable"},
      {"measurement": "IC50", "setting": "hERG", "result": "> 100000", "unit": "nM"},
      {"measurement": "stability in human hepatocytes", "setting": "[5]", "result": "stable"},
      {"measurement": "time on study before progression of disease", "setting": "mesothelioma; epitheloid mesothelioma, 8 mg QD, 21/28", "result": "about 4.5 months"},
      {"measurement": "decrease in target lesions by RECIST", "setting": "mesothelioma; epitheloid mesothelioma, PIK3CA R88Q, 8 mg QD, end of Cycle 2", "result": 26, "unit": "%"},
      {"measurement": "decrease in target lesions by RECIST", "setting": "mesothelioma; epitheloid pleural mesothelioma, 50 mg QD, end of Cycles 1 and 2", "result": 26, "unit": "%"},
      {"measurement": "decrease in target lesions by RECIST", "setting": "mesothelioma; peritoneal mesothelioma, 32 mg QD, end of Cycle 6", "result": 28, "unit": "%"},
      {"measurement": "patients with increased blood glucose", "setting": "[6]; human", "result": 83.3, "unit": "%"},
      {"measurement": "drug-related AEs that occurred in =10% of patients", "setting": "[6]", "result": "fatigue, diarrhea, rash, nausea, decreased appetite, mucositis, hyperglycemia, vomiting, pruritus, GERD (Gastroesophageal reflux disease), and constipation"},
      {"measurement": "number of patients with G3 increased blood glucose", "setting": "[6]", "result": "Six"},
      {"measurement": "decrease in pAKT in PRP", "setting": "pAKT (S473) in PRP; doses of 16 mg", "result": 90, "unit": "%"},
      {"measurement": "time for which significant inhibition of pAKT was maintained", "setting": "pAKT (S473) in PRP; doses of 50 mg", "result": 24, "unit": "hours"},
      {"measurement": "clearance", "setting": "clearance in dogs", "result": 12, "unit": "mL/min/kg"},
      {"measurement": "decrease in target lesions by RECIST", "setting": "adrenal cortical cancer; after 3 weeks of treatment in Cycle 2", "result": 39, "unit": "%"},
      {"measurement": "decrease in target lesions by RECIST", "setting": "adrenal cortical cancer; end of Cycle 1", "result": 22, "unit": "%"},
      {"measurement": "clearance", "setting": "clearance in rodents", "result": 60, "unit": "mL/min/kg"},
      {"measurement": "minimal exposure (AUC) needed to achieve 50% tumor growth inhibition", "setting": "MDA-MB-361.1 xenografts", "result": "approximately 1.7 μM·hr"},
      {"measurement": "number of patients still on study after a year", "setting": "solid tumors", "result": 2},
      {"measurement": "half-life", "setting": "[7]; in vivo, read-out: terminal half-life", "result": "6 to 18", "unit": "h"},
      {"measurement": "dose dependence of AUC and Cmax", "setting": "[7]", "result": "dose-proportional increases"}
    ]}
  ]
}
